From ChEMBL document CHEMBL1201862, “PubChem BioAssay data set” (2004)
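Exposure lasted 48 hours, with cells grown in 96-well plates and compounds tested at five concentrations. GI50: concentration for 50% inhibition of growth.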 Active and inactive are the calls of the source. Cut-off read from the data, not from the text of the source: active = GI50 up to about 1.1 µM and inactive = higher.

Assays:
Assay in all cases: DTP human tumour cell line panel, 48 h
[1] = test system: IGROV-1
[2] = test system: HCC 2998
[3] = test system: RPMI-8226
[4] = test system: NCI-H226
[5] = test system: K562
[6] = test system: A549
[7] = test system: HL-60
[8] = test system: MOLT-4
[9] = test system: SN12C
[10] = test system: OVCAR-3
[11] = test system: TK-10
[12] = test system: UO-31
[13] = test system: DU-145
[14] = test system: 786-0
[15] = test system: NCI-H23
[16] = test system: SNB-75
[17] = test system: NCI/ADR-RES
[18] = test system: MCF7
[19] = test system: KM12
[20] = test system: SK-MEL-5

`COc1ccc(C(=O)CC(c2ccc(OC)c(OC)c2)c2c(O)oc3ccccc3c2=O)cc1OC` (centres undefined) was tested, and the GI50 [1] was > 100 µM (inactive), the GI50 [2] was > 100 µM (inactive) and the GI50 [3] was 95.1 µM (inactive). The GI50 [4] was > 100 µM (inactive), the GI50 [5] was > 100 µM (inactive) and the GI50 [6] was > 100 µM (inactive). The GI50 [7] was > 100 µM (inactive), the GI50 [8] was > 100 µM (inactive) and the GI50 [9] was > 100 µM (inactive). For the same compound, the GI50 [10] was > 100 µM (inactive), the GI50 [11] was > 100 µM (inactive) and the GI50 [12] was > 100 µM (inactive). The GI50 [13] was > 100 µM (inactive), the GI50 [14] was > 100 µM (inactive) and the GI50 [15] was > 100 µM (inactive). The GI50 [16] was > 100 µM (inactive), the GI50 [17] was > 100 µM (inactive) and the GI50 [18] was > 100 µM (inactive). The GI50 [19] was > 100 µM (inactive) and the GI50 [20] was > 100 µM (inactive).

With `Cc1nn(C(=O)c2ccccc2O)c2c1C(c1ccc([N+](=O)[O-])cc1)SC(=N)N2` (centres undefined) the GI50 [1] was 1.88 µM (inactive), the GI50 [2] was > 10 µM (inactive) and the GI50 [3] was > 7.03 µM (inactive). The GI50 [4] was > 4.12 µM (inactive), the GI50 [5] was 1.17 µM (inactive) and the GI50 [6] was 1.47 µM (inactive). For the same compound, the GI50 [7] was 4.27 µM (inactive), the GI50 [8] was 4.94 µM (inactive) and the GI50 [9] was 4.78 µM (inactive). For the same compound, the GI50 [10] was 4.05 µM (inactive), the GI50 [11] was > 4.5 µM (inactive) and the GI50 [12] was 4.49 µM (inactive). The GI50 [13] was 3.64 µM (inactive), the GI50 [14] was > 5.24 µM (inactive) and the GI50 [15] was 2.79 µM (inactive). The GI50 [16] was 0.769 µM (active), the GI50 [17] was 4.51 µM (inactive) and the GI50 [18] was 3.72 µM (inactive). For the same compound, the GI50 [19] was 5.36 µM (inactive) and the GI50 [20] was > 6.43 µM (inactive).

In the case of `COC(=O)CC1C=CC(C)(OC)OO1` (centres undefined), the GI50 [1] is reported as > 100 µM (inactive), the GI50 [2] is reported as 59.7 µM (inactive) and the GI50 [3] is reported as 56.2 µM (inactive). For the same compound, the GI50 [4] was > 100 µM (inactive), the GI50 [5] was 19.7 µM (inactive) and the GI50 [6] was 26 µM (inactive). The GI50 [7] was 21 µM (inactive), the GI50 [8] was > 10 µM (inactive) and the GI50 [9] was > 100 µM (inactive). For the same compound, the GI50 [10] was 87.7 µM (inactive), the GI50 [11] was > 100 µM (inactive) and the GI50 [12] was > 100 µM (inactive). The GI50 [13] was > 100 µM (inactive), the GI50 [14] was > 100 µM (inactive) and the GI50 [15] was > 100 µM (inactive). The GI50 [16] was > 100 µM (inactive), the GI50 [17] was > 100 µM (inactive) and the GI50 [18] was 53.1 µM (inactive). For the same compound, the GI50 [19] was > 100 µM (inactive) and the GI50 [20] was > 100 µM (inactive).

`COP(=O)(OC)C(C)(C)NC(=O)NC(F)(F)F` was tested, and the GI50 [1] was > 100 µM (inactive), the GI50 [2] was > 100 µM (inactive) and the GI50 [3] was > 100 µM (inactive). The GI50 [4] was 22.2 µM (inactive), the GI50 [5] was > 100 µM (inactive) and the GI50 [6] was > 100 µM (inactive). For the same compound, the GI50 [7] was > 100 µM (inactive), the GI50 [8] was > 100 µM (inactive) and the GI50 [9] was > 100 µM (inactive). The GI50 [10] was > 100 µM (inactive), the GI50 [11] was > 100 µM (inactive) and the GI50 [12] was > 100 µM (inactive). The GI50 [13] was > 100 µM (inactive), the GI50 [14] was > 100 µM (inactive) and the GI50 [15] was > 100 µM (inactive). The GI50 [16] was > 100 µM (inactive), the GI50 [17] was > 100 µM (inactive) and the GI50 [18] was > 100 µM (inactive). The GI50 [19] was > 100 µM (inactive) and the GI50 [20] was > 100 µM (inactive).

With `O=c1cc(NNc2cccc3ccccc23)[nH]c(=O)[nH]1` the GI50 [1] was 15.4 µM (inactive), the GI50 [2] was 20 µM (inactive) and the GI50 [3] was 5.53 µM (inactive). The GI50 [4] was 13 µM (inactive), the GI50 [5] was 12.9 µM (inactive) and the GI50 [6] was 17.9 µM (inactive). The GI50 [7] was 2.9 µM (inactive), the GI50 [8] was 17.7 µM (inactive) and the GI50 [9] was 16.2 µM (inactive). For the same compound, the GI50 [10] was 14 µM (inactive), the GI50 [11] was 19.7 µM (inactive) and the GI50 [12] was 16.3 µM (inactive). For the same compound, the GI50 [13] was 15.3 µM (inactive), the GI50 [14] was 6.12 µM (inactive) and the GI50 [15] was 15.3 µM (inactive). The GI50 [16] was 16.6 µM (inactive), the GI50 [17] was 19.5 µM (inactive) and the GI50 [18] was 1.69 µM (inactive). For the same compound, the GI50 [19] was 16.4 µM (inactive) and the GI50 [20] was 15.8 µM (inactive).

With `CC(=O)OCC12CN(C#N)C3C4COC(CC41)C1(C(=O)N(C)c4ccccc41)C32` (centres undefined) the GI50 [1] was 24 µM (inactive), the GI50 [2] was 28.2 µM (inactive) and the GI50 [3] was 9.73 µM (inactive). The GI50 [4] was 15.8 µM (inactive), the GI50 [5] was 14.8 µM (inactive) and the GI50 [6] was 28.4 µM (inactive). For the same compound, the GI50 [7] was 11.2 µM (inactive), the GI50 [8] was 7.48 µM (inactive) and the GI50 [9] was 20.3 µM (inactive). For the same compound, the GI50 [10] was 3.58 µM (inactive), the GI50 [11] was 20.4 µM (inactive) and the GI50 [12] was 13.3 µM (inactive). For the same compound, the GI50 [13] was 15.4 µM (inactive), the GI50 [14] was 28.3 µM (inactive) and the GI50 [15] was 15.6 µM (inactive). For the same compound, the GI50 [16] was 26.5 µM (inactive), the GI50 [17] was 22.2 µM (inactive) and the GI50 [18] was 19.3 µM (inactive). For the same compound, the GI50 [19] was 36.5 µM (inactive) and the GI50 [20] was 26.7 µM (inactive).

`CCN(CC)CCn1c(=O)c2ccccc2n2c3c(=O)n(C)c(=O)n(C)c3nc12` was tested, and the GI50 [1] was 2.11 µM (inactive), the GI50 [2] was 1.93 µM (inactive) and the GI50 [3] was 1.6 µM (inactive). The GI50 [4] was 1.16 µM (inactive), the GI50 [5] was 2.21 µM (inactive) and the GI50 [6] was 0.321 µM (active). For the same compound, the GI50 [7] was 0.255 µM (active), the GI50 [8] was 0.239 µM (active) and the GI50 [9] was 1.53 µM (inactive). For the same compound, the GI50 [10] was 4.06 µM (inactive), the GI50 [11] was 19.6 µM (inactive) and the GI50 [12] was 2.11 µM (inactive). For the same compound, the GI50 [13] was 0.771 µM (active), the GI50 [14] was 1.32 µM (inactive) and the GI50 [15] was 2.07 µM (inactive). For the same compound, the GI50 [16] was 1.64 µM (inactive), the GI50 [17] was 3.33 µM (inactive) and the GI50 [18] was 0.337 µM (active). For the same compound, the GI50 [19] was 1.77 µM (inactive) and the GI50 [20] was 1.17 µM (inactive).

For `CC1=CC[C@](C)(O)[C@@]2(C)CC[C@H]3C(=C(C)C)C(=O)C[C@]3(C)C[C@H]12`, the GI50 [1] was 19.3 µM (inactive), the GI50 [2] was > 50 µM (inactive) and the GI50 [3] was 11.2 µM (inactive). The GI50 [4] was > 50 µM (inactive), the GI50 [5] was 9.2 µM (inactive) and the GI50 [6] was 46.8 µM (inactive). The GI50 [7] was 6.55 µM (inactive), the GI50 [8] was 8.07 µM (inactive) and the GI50 [9] was 34.8 µM (inactive). For the same compound, the GI50 [10] was 36.3 µM (inactive), the GI50 [11] was > 50 µM (inactive) and the GI50 [12] was 28.8 µM (inactive). The GI50 [13] was > 50 µM (inactive), the GI50 [14] was 15.7 µM (inactive) and the GI50 [15] was 34.1 µM (inactive). The GI50 [16] was 26.5 µM (inactive), the GI50 [17] was 16.5 µM (inactive) and the GI50 [18] was 31.3 µM (inactive). The GI50 [19] was 12.9 µM (inactive) and the GI50 [20] was 27.8 µM (inactive).

`COC(=O)c1ccccc1C1CN=NC12Cc1ccc3ccccc3c1C2=O` (centres undefined) was tested, and the GI50 [1] was > 100 µM (inactive), the GI50 [2] was > 100 µM (inactive) and the GI50 [3] was 13.4 µM (inactive). For the same compound, the GI50 [4] was > 100 µM (inactive), the GI50 [5] was > 100 µM (inactive) and the GI50 [6] was 85.3 µM (inactive). For the same compound, the GI50 [7] was 8.43 µM (inactive), the GI50 [8] was 57.3 µM (inactive) and the GI50 [9] was > 100 µM (inactive). The GI50 [10] was 17.7 µM (inactive), the GI50 [11] was > 100 µM (inactive) and the GI50 [12] was > 100 µM (inactive). For the same compound, the GI50 [13] was > 100 µM (inactive), the GI50 [14] was > 100 µM (inactive) and the GI50 [16] was > 100 µM (inactive). For the same compound, the GI50 [17] was > 100 µM (inactive), the GI50 [18] was > 100 µM (inactive) and the GI50 [19] was 52.5 µM (inactive). For the same compound, the GI50 [20] was 6.08 µM (inactive).

In the case of `Cc1ccc2c(c1)C(=O)/C(=N/Nc1ccc(Cl)cc1)CCO2`, the GI50 [1] is reported as > 100 µM (inactive), the GI50 [2] is reported as 54.1 µM (inactive) and the GI50 [3] is reported as 36.3 µM (inactive). For the same compound, the GI50 [4] was > 100 µM (inactive), the GI50 [5] was 28 µM (inactive) and the GI50 [6] was 94.6 µM (inactive). For the same compound, the GI50 [7] was 38.9 µM (inactive), the GI50 [8] was 71.3 µM (inactive) and the GI50 [9] was > 100 µM (inactive). The GI50 [10] was > 100 µM (inactive), the GI50 [11] was > 100 µM (inactive) and the GI50 [12] was > 100 µM (inactive). The GI50 [13] was > 100 µM (inactive), the GI50 [14] was 37.1 µM (inactive) and the GI50 [15] was > 100 µM (inactive). The GI50 [16] was > 100 µM (inactive), the GI50 [17] was > 100 µM (inactive) and the GI50 [18] was 58.7 µM (inactive). The GI50 [19] was 75 µM (inactive) and the GI50 [20] was 23.3 µM (inactive).
